# Measured values published in ChEMBL document CHEMBL4418495, “Entpd5 inhibitors” (2012).
# Calls of active or inactive are those of the source.
# Assays:
# [1] = molecular target: T1, Nucleoside diphosphate phosphatase ENTPD5 (Homo sapiens, UniProt O75356); assay: Inhibition of human recombinant ENTPD5 expressed in insect cells assessed as reduction in UDP hydrolysis incubated for 1 hr in presence of UMP, GTP and ATP by Escherichia coli UMP kinase pyrH catalyzed UMP phosphorylation coupled luciferase assay
# T1 sequence (O75356 whole entry): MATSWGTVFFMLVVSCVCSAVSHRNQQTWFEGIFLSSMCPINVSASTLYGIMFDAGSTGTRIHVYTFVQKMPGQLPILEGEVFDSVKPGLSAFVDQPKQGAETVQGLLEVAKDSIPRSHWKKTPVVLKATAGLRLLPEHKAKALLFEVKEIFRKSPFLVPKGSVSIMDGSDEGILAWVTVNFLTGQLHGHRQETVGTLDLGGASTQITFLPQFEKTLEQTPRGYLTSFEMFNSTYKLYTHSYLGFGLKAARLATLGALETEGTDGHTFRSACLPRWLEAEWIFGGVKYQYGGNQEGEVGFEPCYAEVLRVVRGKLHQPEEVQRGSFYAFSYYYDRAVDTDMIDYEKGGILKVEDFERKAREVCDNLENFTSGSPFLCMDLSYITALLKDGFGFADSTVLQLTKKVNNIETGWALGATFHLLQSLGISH
# [2] = molecular target: T2, Ectonucleoside triphosphate diphosphohydrolase 5 (Mus musculus) (UniProt Q9WUZ9); assay: Inhibition of ENTPD5 in PTEN knockout mouse MEF cells assessed as induction of ER stress by measuring increase in GRP78/BiP expression at 30 uM incubated for 24 hrs by Western blotting analysis; assay type: cell-based
# T2 sequence (whole entry): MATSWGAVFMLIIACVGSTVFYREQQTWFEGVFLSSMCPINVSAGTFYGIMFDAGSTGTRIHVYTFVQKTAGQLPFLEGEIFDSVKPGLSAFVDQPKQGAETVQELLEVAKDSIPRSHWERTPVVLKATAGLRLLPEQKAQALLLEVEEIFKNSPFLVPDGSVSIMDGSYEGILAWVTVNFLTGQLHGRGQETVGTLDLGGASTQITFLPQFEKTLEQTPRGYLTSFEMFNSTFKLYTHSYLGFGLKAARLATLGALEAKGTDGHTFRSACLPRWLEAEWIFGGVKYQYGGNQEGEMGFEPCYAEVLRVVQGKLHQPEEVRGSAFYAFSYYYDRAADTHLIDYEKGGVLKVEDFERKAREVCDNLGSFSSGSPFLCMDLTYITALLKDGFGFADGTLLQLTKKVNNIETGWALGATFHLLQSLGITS
# LNCaP [3] = assay: Antitumor activity against human LNCAP cells xenografted in mouse assessed as induction of tumor shrinkage at 1 to 100 mg/kg, ip dosed every other day and measured after 6 weeks by microscopy; assay type: functional, organism-based
# LNCaP [4] = assay: Antitumor activity against human LNCAP cells xenografted in mouse assessed as reduction in cells left in matrigels at 1 to 100 mg/kg, ip dosed every other day and measured after 6 weeks by hematoxylin and eosin staining based microscopy; assay type: functional, organism-based
# [5] = molecular target: T3, Nucleoside diphosphate phosphatase ENTPD5 (Homo sapiens) (UniProt O75356); assay: Inhibition of human recombinant ENTPD5 expressed in insect cells assessed as reduction in UDP hydrolysis at 1 uM incubated for 1 hr in presence of UMP, GTP and ATP by Escherichia coli UMP kinase pyrH catalyzed UMP phosphorylation coupled luciferase assay
# T3 sequence (whole entry): T1 sequence (O75356 whole entry)
# [6] = molecular target: T3, Nucleoside diphosphate phosphatase ENTPD5 (Homo sapiens); assay: Inhibition of human recombinant ENTPD5 expressed in insect cells assessed as reduction in UDP hydrolysis up to 10 uM incubated for 1 hr in presence of UMP, GTP and ATP by Escherichia coli UMP kinase pyrH catalyzed UMP phosphorylation coupled luciferase assay
# [7] = molecular target: T4, Uridylate kinase (Escherichia coli (strain K12)) (UniProt P0A7E9); assay: Inhibition of recombinant Escherichia coli UMP kinase pyrH catalyzed UMP phosphorylation in presence of GTP and ATP incubated for 1 hr by luminescence based assay
# T4 sequence (whole entry): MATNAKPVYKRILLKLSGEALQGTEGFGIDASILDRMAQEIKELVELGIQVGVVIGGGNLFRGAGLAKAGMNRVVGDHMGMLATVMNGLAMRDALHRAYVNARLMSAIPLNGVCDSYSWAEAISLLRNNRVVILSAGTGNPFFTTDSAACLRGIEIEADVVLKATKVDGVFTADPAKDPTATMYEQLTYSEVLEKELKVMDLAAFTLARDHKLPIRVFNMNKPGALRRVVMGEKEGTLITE
# [8] = molecular target: T3, Nucleoside diphosphate phosphatase ENTPD5 (Homo sapiens); assay: Inhibition of human recombinant ENTPD5 expressed in insect cells assessed as reduction in reduction in UDP hydrolysis by measuring inorganic phosphate release incubated for 1 hr by malachite green based assay
Compound,IC50 [1],inhibition [2],Activity (LNCaP [3]),Activity (LNCaP [4]),inhibition [5],inhibition [6],inhibition [7],inhibition [8]
C[C@H]1CC[C@@H]2C(CCCC2(C)C)[C@]1(C)c1cc(O)ccc1O (some centres not stated),30 µM,,,,,,,
C[C@H]1CC[C@]2(C)C(CCCC2(C)C)[C@]1(C)c1cc(O)ccc1O (some centres not stated),30 µM,,,,,,,
O=C1/C(=C/c2ccc(O)c([N+](=O)[O-])c2)SC(=S)N1c1cccc(Cl)c1,,Active,Active,Active,Active,Dose-dependent effect,inactive,Active
COc1ccccc1/C=N\NC(=O)c1cc2c(C)nn(-c3ccccc3)c2s1,,Active,Active,Active,Active,Dose-dependent effect,inactive,Active
O=C(CN1C(=O)/C(=C2\SC(N3CCOCC3)=NC2=O)c2ccccc21)Nc1cccc(Br)c1,,Active,Active,Active,Active,Dose-dependent effect,inactive,Active
N=C1S/C(=C\c2ccc(N3CCOCC3)cc2)C(=O)N1c1ccc(Br)cc1,,Active,Active,Active,Active,Dose-dependent effect,inactive,Active
O=C(Oc1ccc2ccccc2c1)c1ccc2c(c1)C1C=CCC1C(C(=O)O)N2 (configuration not stated),,Active,Active,Active,Active,Dose-dependent effect,inactive,Active
O=C1NC(=O)N(c2ccc(I)cc2)C(=O)/C1=C/c1cnn(-c2ccccc2)c1,,Active,Active,Active,Active,Dose-dependent effect,inactive,Active
O=C1/C(=C/c2ccc(O)c([N+](=O)[O-])c2)SC(=S)N1c1cccc(C(F)(F)F)c1,,Active,Active,Active,Active,Dose-dependent effect,inactive,Active
O=C1NC(=S)NC(=O)C1=Cc1ccc(-c2ccc(Br)cc2)o1,,Active,Active,Active,Active,Dose-dependent effect,inactive,Active
O=C1NC(=O)C(=Cc2ccc(-c3ccc(I)cc3)o2)C(=O)N1,,Active,Active,Active,Active,Dose-dependent effect,inactive,Active
O=C1NC(=S)NC(=O)C1=Cc1ccc(-c2ccc(Cl)c(Cl)c2)o1,,Active,Active,Active,Active,Dose-dependent effect,inactive,Active
CC1(C)CCC[C@]2(C)[C@H]3Cc4cc(O)ccc4O[C@]3(C)CC[C@@H]12,10 µM,,,,,,,
O=C1NC(=O)N(c2ccc(F)cc2)C(=O)/C1=C/c1ccc(Sc2ccc(Cl)cc2)o1,,Active,Active,Active,Active,Dose-dependent effect,inactive,Active
Cc1ccc2nc(Nc3nc(O)c(CCC(C)C)c(=O)[nH]3)nc(C)c2c1,,Active,Active,Active,Active,Dose-dependent effect,inactive,Active
O=C1NC(=S)NC(=O)C1=Cc1ccc(-c2cc(Cl)ccc2Cl)o1,,Active,Active,Active,Active,Dose-dependent effect,inactive,Active
Cc1cc(/C=C2\C(=O)NC(=S)N(c3ccc(Cl)cc3)C2=O)c(C)n1-c1ccc([N+](=O)[O-])cc1,,Active,Active,Active,Active,Dose-dependent effect,inactive,Active
O=C1NC(=S)N(c2ccccc2F)C(=O)/C1=C/c1cccn1-c1ccc(Br)cc1,,Active,Active,Active,Active,Dose-dependent effect,inactive,Active
O=C1/C(=C/c2ccc(O)cc2O)CCC/C1=C\c1ccc(O)cc1O,,Active,Active,Active,Active,Dose-dependent effect,inactive,Active
O=C1NC(=S)N(c2ccccc2)C(=O)/C1=C/c1ccc(-c2cc([N+](=O)[O-])ccc2Cl)o1,,Active,Active,Active,Active,Dose-dependent effect,inactive,Active
O=C1/C(=C/c2ccco2)C(=O)N(c2ccc(Br)cc2)C(=S)N1c1ccccc1,,Active,Active,Active,Active,Dose-dependent effect,inactive,Active
CCOC(=O)c1ccc(-c2ccc(/C=C3/C(=O)NC(=O)N(Cc4ccco4)C3=O)o2)cc1,,Active,Active,Active,Active,Dose-dependent effect,inactive,Active
S=C(Nc1ccc2nc(-c3ccco3)c(-c3ccco3)nc2c1)N1CCCC1,,Active,Active,Active,Active,Dose-dependent effect,inactive,Active
COc1ccc(/C=C2\SC(=S)N(c3ccc([N+](=O)[O-])cc3)C2=O)cc1O,,Active,Active,Active,Active,Dose-dependent effect,inactive,Active
Cc1cc(I)cc2c1NC(c1ccc([N+](=O)[O-])cc1)C1CC=CC21 (configuration not stated),,Active,Active,Active,Active,Dose-dependent effect,inactive,Active
